The source made the active and inactive calls.
Assays:
[1] = molecular target: NACHT, LRR and PYD domains-containing protein 3 (Mus musculus) (UniProt Q8R4B8); experiment: Inhibition of NLRP3 inflammasome activation in LPS-stimulated mouse RAW264.7 cells assessed as downregulation of IL-1beta expression by Western blot analysis; format: cell-based; details: dose 2.5-10 µM
[2] = molecular target: NACHT, LRR and PYD domains-containing protein 3 (Mus musculus) (UniProt Q8R4B8); experiment: Inhibition of NLRP3 inflammasome activation in LPS-stimulated mouse RAW264.7 cells assessed as downregulation of NLRP3 expression by Western blot analysis; format: cell-based; details: dose 2.5-10 µM
Mus musculus [3] = experiment: In vivo inhibition of MAPK activation in LPS-induced BALB/c mouse model of […] assessed as inhibition of JNK phosphorylation preadministered orally with compound for 3 days followed by LPS stimulation for 6 hrs after 1 hrs compound administration on day 3 by Western blot analysis; format: functional; details: dose 5-20 mg/kg, route po, time 3.0 day
Mus musculus [4] = experiment: Anti-inflammatory activity in LPS-induced BALB/c mouse model of […] assessed as inhibition of LPS-induced increase in IL-6 expression in serum at 5 to 20 mg/kg, po preadministered with compound for 3 days followed by LPS stimulation for 6 hrs after 1 hrs compound administration on day 3 by ELISA; format: functional, organism-based; details: dose 5-20 mg/kg, time 3.0 day
Mus musculus [5] = experiment: In vivo inhibition of NLRP3 inflammasome activation in LPS-induced BALB/c mouse model of […] assessed as reduction in NLRP3 expression preadministered orally with compound for 3 days followed by LPS stimulation for 6 hrs after 1 hrs compound administration on day 3 by Western blot analysis; format: functional; details: dose 5-20 mg/kg, route po, time 3.0 day
RAW264.7 = experiment: Anti-inflammatory activity in LPS-stimulated mouse RAW264.7 cells assessed as inhibition of ROS production preincubated with compound for 1 hrs followed by LPS stimulation and measured after 23 hrs by DCFH-DA staining based confocal laser microscopic analysis; format: functional, cell-based; details: dose 2.5-10 µM, time 24.0 hrs
Mus musculus [6] = experiment: Anti-inflammatory activity in LPS-induced BALB/c mouse model of […] assessed as inhibition of COX-2 expression preadministered orally with compound for 3 days followed by LPS stimulation for 6 hrs after 1 hrs compound administration on day 3 by Western blot analysis; format: functional, organism-based; details: dose 5-20 mg/kg, route po, time 3.0 day
Mus musculus [7] = experiment: In vivo inhibition of NFkappaB activation in LPS-induced BALB/c mouse model of […] assessed as inhibition of IkappaBalpha degradation preadministered orally with compound for 3 days followed by LPS stimulation for 6 hrs after 1 hrs compound administration on day 3 by Western blot analysis; format: functional; details: dose 5-20 mg/kg, route po, time 3.0 day

NACHT, LRR and PYD domains-containing protein 3 (Mus musculus), sequence (Q8R4B8 whole entry, the tested form may be a part): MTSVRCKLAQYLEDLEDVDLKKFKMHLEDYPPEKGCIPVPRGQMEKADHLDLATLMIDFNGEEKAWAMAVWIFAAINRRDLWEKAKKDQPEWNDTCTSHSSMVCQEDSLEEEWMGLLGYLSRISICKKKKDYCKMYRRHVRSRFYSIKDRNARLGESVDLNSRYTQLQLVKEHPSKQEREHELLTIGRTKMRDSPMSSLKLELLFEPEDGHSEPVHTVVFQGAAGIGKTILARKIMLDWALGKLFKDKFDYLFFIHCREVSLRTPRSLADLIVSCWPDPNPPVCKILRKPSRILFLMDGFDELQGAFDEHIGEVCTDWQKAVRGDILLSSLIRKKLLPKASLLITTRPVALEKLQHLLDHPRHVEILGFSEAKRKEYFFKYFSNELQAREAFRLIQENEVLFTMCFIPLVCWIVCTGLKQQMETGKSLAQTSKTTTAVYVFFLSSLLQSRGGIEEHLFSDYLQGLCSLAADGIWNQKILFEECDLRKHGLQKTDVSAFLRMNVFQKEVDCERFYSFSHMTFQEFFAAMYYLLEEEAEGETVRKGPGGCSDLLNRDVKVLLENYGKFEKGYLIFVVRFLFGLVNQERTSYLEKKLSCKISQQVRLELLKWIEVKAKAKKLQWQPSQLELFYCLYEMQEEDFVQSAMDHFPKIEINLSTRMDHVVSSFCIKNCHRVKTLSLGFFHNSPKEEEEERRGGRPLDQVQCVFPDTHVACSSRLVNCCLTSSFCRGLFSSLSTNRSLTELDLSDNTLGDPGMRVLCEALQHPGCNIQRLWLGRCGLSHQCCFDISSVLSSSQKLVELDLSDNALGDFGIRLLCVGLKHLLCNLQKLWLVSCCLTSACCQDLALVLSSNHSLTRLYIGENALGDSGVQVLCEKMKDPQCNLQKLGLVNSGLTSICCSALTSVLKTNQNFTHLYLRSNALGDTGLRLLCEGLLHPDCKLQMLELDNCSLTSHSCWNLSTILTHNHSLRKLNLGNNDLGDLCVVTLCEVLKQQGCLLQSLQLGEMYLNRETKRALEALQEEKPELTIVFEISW

CC(=O)O[C@H]1C[C@@]2(C)[C@@H](C[C@@H](O)[C@H]3[C@@]4(C)CC[C@@H](O)[C@@H](C)[C@@H]4CC[C@@]32C)/C1=C(\CCC=C(C)C)C(=O)OCc1cn(-c2ccccc2)nn1
active: inhibition [1] Dose-Dependent Effect | inhibition [2] Dose-Dependent Effect | inhibition (Mus musculus [3]) Dose-Dependent Effect | Activity (Mus musculus [4]) | inhibition (Mus musculus [5]) Dose-Dependent Effect | Activity (RAW264.7) Dose-Dependent Effect | Activity (Mus musculus [6]) Dose-Dependent Effect | inhibition (Mus musculus [7]) Dose-Dependent Effect
